# Test results as given in US9695155B2, “Herbicidal substituted pyrimidinyloxy benzene compounds” (E. I. DU PONT DE NEMOURS AND COMPANY, priority 2013, dated 2017).
# Key:
# sedge, umbrella = experiment: Test B flooded paddy test; format: in vivo, Cyperus difformis; details: Flood, 250 g ai/ha, 0 to 100 scale where 0 is no effect and 100 is complete control
# Procedure, shortened: (§1)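 Seedlings are raised to two leaves, flooded to a depth of 3 cm and dosed by adding the compound to the floodwater. Water level is kept constant, and plants are scored visually versus controls 13–15 days later (0 = no effect, 100 = complete control).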
# ragweed [1] = experiment: Test A preemergence; format: in vivo, Ambrosia elatior; details: for Plant response rating, Ragweed: 0 to 100 scale where 0 is no effect and 100 is complete control
# Procedure, shortened: (§2)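 Compounds in non-phytotoxic solvent with surfactant applied as soil spray preemergence, or postemergence to plants 2-10 cm at one- to two-leaf stage, in loam/sand. After approximately 10 days in greenhouse, injury rated visually versus untreated controls, 0 (no effect) to 100 (complete control).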
# barnyardgrass [2] = experiment: Test B flooded paddy test; format: in vivo, Echinochloa crus-galli; details: Flood, 250 g ai/ha, 0 to 100 scale where 0 is no effect and 100 is complete control
# Procedure, shortened: as §1
# wheat = experiment: Test A postemergence; format: in vivo, Triticum aestivum; details: 0 to 100 scale, 0 no effect, 100 complete control
# Procedure, shortened: as §2
# galium = experiment: Test A postemergence; format: in vivo, Galium aparine
# Procedure, shortened: as §2
# Italian ryegrass [3] = experiment: Test A preemergence; format: in vivo, Lolium multiflorum; details: for Plant response rating, Ryegrass, Italian: 0 to 100 scale where 0 is no effect and 100 is complete control
# Procedure, shortened: as §2
# pigweed [4] = experiment: Test A postemergence; format: in vivo, Amaranthus retroflexus; details: 0 to 100 scale, 0 no effect, 100 complete control
# Procedure, shortened: as §2
# Italian ryegrass [5] = experiment: Test A postemergence; format: in vivo, Lolium multiflorum; details: 0 to 100 scale, 0 no effect, 100 complete control
# Procedure, shortened: as §2
# blackgrass = experiment: Test A postemergence; format: in vivo, Alopecurus myosuroides
# Procedure, shortened: as §2
# rice = experiment: Test B flooded paddy test; format: in vivo, Oryza sativa; details: Flood, 250 g ai/ha, 0 to 100 scale where 0 is no effect and 100 is complete control
# Procedure, shortened: as §1
# ragweed [6] = experiment: Test A postemergence; format: in vivo, Ambrosia elatior; details: 0 to 100 scale, 0 no effect, 100 complete control
# Procedure, shortened: as §2
# kochia [7] = experiment: Test A postemergence; format: in vivo, Kochia scoparia
# Procedure, shortened: as §2
# kochia [8] = experiment: Test A preemergence; format: in vivo, Kochia scoparia; details: for Plant response rating, Kochia: 0 to 100 scale where 0 is no effect and 100 is complete control
# Procedure, shortened: as §2
# barnyardgrass [9] = experiment: Test A postemergence; format: in vivo, Echinochloa crus-galli
# Procedure, shortened: as §2
# corn = experiment: Test A postemergence; format: in vivo, Zea mays
# Procedure, shortened: as §2
# giant foxtail [10] = experiment: Test A postemergence; format: in vivo, Setaria faberii
# Procedure, shortened: as §2
# Heteranthera limosa = experiment: Test B flooded paddy test; format: in vivo; details: Flood, 250 g ai/ha, 0 to 100 scale where 0 is no effect and 100 is complete control
# Procedure, shortened: as §1
# pigweed [11] = experiment: Test A preemergence; format: in vivo, Amaranthus retroflexus; details: for Plant response rating, Pigweed: 0 to 100 scale where 0 is no effect and 100 is complete control
# Procedure, shortened: as §2
# barnyardgrass [12] = experiment: Test A preemergence; format: in vivo, Echinochloa crus-galli; details: for Plant response rating, Barnyardgrass: 0 to 100 scale where 0 is no effect and 100 is complete control
# Procedure, shortened: as §2
# giant foxtail [13] = experiment: Test A preemergence; format: in vivo, Setaria faberii; details: for Plant response rating, Foxtail, Giant: 0 to 100 scale where 0 is no effect and 100 is complete control
# Procedure, shortened: as §2
# [14] = 1000 g ai/ha, 0 to 100 scale, 0 no effect, 100 complete control, approx. 10 days
# [15] = 1000 g ai/ha, 0 to 100 scale, 0 no effect, 100 complete control
# [16] = 31 g ai/ha, 0 to 100 scale, 0 no effect, 100 complete control
# [17] = 125 g ai/ha, 0 to 100 scale where 0 is no effect and 100 is complete control
# [18] = 31 g ai/ha, visual, approximately 10 days
# [19] = 125 g ai/ha, 0 to 100 scale, 0 no effect, 100 complete control
structure (smiles),measurement,setting,value
"FC(F)(F)c1cnn(-c2c(Oc3ncc(Cl)cn3)cccc2-c2nnco2)c1 [Compound 298, 2-[3-[(5-chloro-2-pyrimidinyl)oxy]-2-[4-(trifluoromethyl)-1H-pyrazol-1-yl]phenyl]-1,3,4-oxadiazole]",pest or weed control at 250 g/ha,"sedge, umbrella; Cyperus difformis, read-out: Plant response rating, Sedge, Umbrella",30%
same,Ragweed plant response rating,ragweed [1]; [14],90
same,pest or weed control at 250 g/ha,"barnyardgrass [2]; Echinochloa crus-galli, read-out: Plant response rating, Barnyardgrass",0%
same,plant injury at 1000 g/ha,"wheat; Triticum aestivum, post-emergence, 240 h, 1000 g ai/ha, read-out: Plant response rating Wheat",40%
same,"Plant response rating, Galium",galium; [15],80
same,"Ryegrass, Italian plant response rating",Italian ryegrass [3]; [14],50
same,pest or weed control at 1000 g/ha,"pigweed [4]; Amaranthus retroflexus, post-emergence, 240 h, 1000 g ai/ha, read-out: Plant response rating Pigweed",100%
same,"Plant response rating, Ryegrass, Italian",Italian ryegrass [5]; 1000 g ai/ha,70
same,"Plant response rating, Blackgrass",blackgrass; [15],80
same,plant injury at 250 g/ha,"rice; Oryza sativa, read-out: Plant response rating, Rice",0%
same,"Plant response rating, Ragweed",ragweed [6]; 1000 g ai/ha,90
same,"Plant response rating, Kochia",kochia [7]; [15],100
same,Kochia plant response rating,kochia [8]; [14],90
same,pest or weed control at 1000 g/ha,"barnyardgrass [9]; Echinochloa crus-galli, post-emergence, 240 h, 1000 g ai/ha, 0 to 100 scale, 0 no effect, 100 complete control, read-out: Plant response rating Barnyardgrass",90%
same,plant injury at 1000 g/ha,"corn; Zea mays, post-emergence, 240 h, 1000 g ai/ha, 0 to 100 scale, 0 no effect, 100 complete control, read-out: Plant response rating Corn",70%
same,pest or weed control at 1000 g/ha,"giant foxtail [10]; Setaria faberi, post-emergence, 240 h, 1000 g ai/ha, 0 to 100 scale, 0 no effect, 100 complete control, read-out: Plant response rating Foxtail, Giant",90%
same,pest or weed control at 250 g/ha,"Heteranthera limosa; Heteranthera limosa, read-out: Plant response rating, Ducksalad",0%
same,pest or weed control at 1000 g/ha,"pigweed [11]; Amaranthus retroflexus, pre-emergence, 240 h, 1000 g ai/ha, 0 to 100 scale, 0 no effect, 100 complete control, approx. 10 days, read-out: Pigweed plant response rating",100%
same,pest or weed control at 1000 g/ha,"barnyardgrass [12]; Echinochloa crus-galli, pre-emergence, 240 h, 1000 g ai/ha, 0 to 100 scale, 0 no effect, 100 complete control, approx. 10 days, read-out: Barnyardgrass plant response rating",100%
same,pest or weed control at 1000 g/ha,"giant foxtail [13]; Setaria faberi, pre-emergence, 240 h, 1000 g ai/ha, 0 to 100 scale, 0 no effect, 100 complete control, approx. 10 days, read-out: Foxtail, Giant plant response rating",100%
Fc1cccc(Oc2ncc(Cl)cn2)c1-n1cc(C2CCCC2)nn1 [Compound 106],"Plant response rating, Sedge, Umbrella","sedge, umbrella",90
same,Ragweed plant response rating (0 to 100 scale),ragweed [1]; 31 g ai/ha,0
same,"Plant response rating, Ragweed",ragweed [1]; 125 g ai/ha,0
same,"Plant response rating, Barnyardgrass",barnyardgrass [2],0
same,"Plant response rating, Wheat",wheat; 31 g ai/ha,0
same,"Plant response rating, Galium",galium; [16],50
same,"Plant response rating, Galium",galium; [17],70
same,"Ryegrass, Italian plant response rating (0 to 100 scale)",Italian ryegrass [3]; 31 g ai/ha,0
same,"Plant response rating, Ryegrass, Italian",Italian ryegrass [3]; 125 g ai/ha,0
same,"Plant response rating, Pigweed",pigweed [4]; 31 g ai/ha,50
same,"Plant response rating, Ryegrass, Italian",Italian ryegrass [5]; 31 g ai/ha,0
same,"Plant response rating, Blackgrass",blackgrass; [16],30
same,"Plant response rating, Blackgrass",blackgrass; [17],50
same,"Plant response rating, Rice",rice,0
same,"Plant response rating, Ragweed",ragweed [6]; 31 g ai/ha,20
same,"Plant response rating, Kochia",kochia [7]; [16],0
same,"Plant response rating, Kochia",kochia [7]; [17],50
same,Kochia plant response rating (0 to 100 scale),kochia [8]; 31 g ai/ha,0
same,"Plant response rating, Kochia",kochia [8]; 125 g ai/ha,0
same,"Plant response rating, Barnyardgrass",barnyardgrass [9]; [16],0
same,"Plant response rating, Barnyardgrass",barnyardgrass [9]; [17],50
same,"Plant response rating, Corn",corn; [16],0
same,"Plant response rating, Corn",corn; [17],20
same,"Plant response rating, Foxtail, Giant",giant foxtail [10]; [16],50
same,"Plant response rating, Foxtail, Giant",giant foxtail [10]; [17],70
same,"Plant response rating, Ducksalad",Heteranthera limosa,75
same,Pigweed plant response rating (0 to 100 scale),pigweed [11]; 31 g ai/ha,10
same,"Plant response rating, Pigweed",pigweed [11]; 125 g ai/ha,60
same,Barnyardgrass plant response rating (0 to 100 scale),barnyardgrass [12]; 31 g ai/ha,0
same,"Plant response rating, Barnyardgrass",barnyardgrass [12]; 125 g ai/ha,40
same,"Foxtail, Giant plant response rating (0 to 100 scale)",giant foxtail [13]; 31 g ai/ha,30
same,"Plant response rating, Foxtail, Giant",giant foxtail [13]; 125 g ai/ha,70
Cc1cc(C(F)F)nn1-c1ccccc1Oc1ncc(Cl)cn1 [Compound 267],"Plant response rating, Sedge, Umbrella","sedge, umbrella",0
same,"Plant response rating, Ragweed",ragweed [1]; [18],0
same,Ragweed plant response rating (0 to 100 scale),ragweed [1]; 125 g ai/ha,0
same,"Plant response rating, Barnyardgrass",barnyardgrass [2],0
same,"Plant response rating, Wheat",wheat; 31 g ai/ha,0
same,"Plant response rating, Wheat",wheat; 125 g ai/ha,0
same,"Plant response rating, Galium",galium; [16],0
same,"Plant response rating, Galium",galium; [19],10
same,"Plant response rating, Ryegrass, Italian",Italian ryegrass [3]; [18],0
same,"Ryegrass, Italian plant response rating (0 to 100 scale)",Italian ryegrass [3]; 125 g ai/ha,0
same,"Plant response rating, Pigweed",pigweed [4]; 31 g ai/ha,0
same,"Plant response rating, Pigweed",pigweed [4]; 125 g ai/ha,0
same,"Plant response rating, Ryegrass, Italian",Italian ryegrass [5]; 31 g ai/ha,0
same,"Plant response rating, Ryegrass, Italian",Italian ryegrass [5]; 125 g ai/ha,0
same,"Plant response rating, Blackgrass",blackgrass; [16],0
same,"Plant response rating, Blackgrass",blackgrass; [19],0
same,"Plant response rating, Rice",rice,0
same,"Plant response rating, Ragweed",ragweed [6]; 31 g ai/ha,0
same,"Plant response rating, Ragweed",ragweed [6]; 125 g ai/ha,0
same,"Plant response rating, Kochia",kochia [7]; [16],0
same,"Plant response rating, Kochia",kochia [7]; [19],0
same,"Plant response rating, Kochia",kochia [8]; [18],0
same,Kochia plant response rating (0 to 100 scale),kochia [8]; 125 g ai/ha,0
same,"Plant response rating, Barnyardgrass",barnyardgrass [9]; [16],0
same,"Plant response rating, Barnyardgrass",barnyardgrass [9]; [19],0
same,"Plant response rating, Corn",corn; [16],0
same,"Plant response rating, Corn",corn; [19],0
same,"Plant response rating, Foxtail, Giant",giant foxtail [10]; [16],0
same,"Plant response rating, Foxtail, Giant",giant foxtail [10]; [19],0
same,"Plant response rating, Ducksalad",Heteranthera limosa,0
same,"Plant response rating, Pigweed",pigweed [11]; [18],0
same,Pigweed plant response rating (0 to 100 scale),pigweed [11]; 125 g ai/ha,0
same,"Plant response rating, Barnyardgrass",barnyardgrass [12]; [18],0
same,"Barnyardgrass plant response rating (0 to 100 scale, 0 is no effect, 100 is complete control)",barnyardgrass [12]; 125 g ai/ha,0
same,"Plant response rating, Foxtail, Giant",giant foxtail [13]; [18],0
same,"Foxtail, Giant plant response rating (0 to 100 scale)",giant foxtail [13]; 125 g ai/ha,0
